Where two headings read alike, the source gives them in different places.
Legend:
[1] = test system: P. falciparum CQ-resistant W-2; assay: In vitro antimalarial assay (pLDH), Pf W-2 strain; format: cell-based, Plasmodium falciparum; conditions: for IC50: 72 h, read-out: W-2 (CQ-R) Mean ± S.D. IC50; for Ratio IC50 cpd/IC50 DHA: W-2 strain; for SI IC50WEHI-164/IC50 cpd: selectivity index versus W-2 strain
Method: (§1) Compounds were dissolved in either water or DMSO and then diluted with medium to achieve the required concentrations (final DMSO concentration <1%, which is non-toxic to the parasite). […] Parasite growth was determined spectrophotometrically (OD650) by measuring the activity of the parasite lactate dehydrogenase (pLDH) according to a modification of the method of Makler in control and drug-treated cultures.
(§2) As a blank, uninfected RBCs were used for the antimalarial assays or media without cells for the cytotoxicity assays. The percent viability was plotted as a function of drug concentrations, and the curve fitting was obtained by nonlinear regression analysis using a four parameter logistic method (software Gen5 1.10 provided with the Synergy4 plate reader [Biotek]).

[2] = test system: P. falciparum CQ-sensitive D10; assay: In vitro antimalarial assay (pLDH), Pf D10 strain; format: cell-based, Plasmodium falciparum; conditions: for Ratio IC50 cpd/IC50 DHA: D10 strain; for IC50: read-out: D10 (CQ-S) Mean ± S.D. IC50; for SI IC50WEHI-164/IC50 cpd: selectivity index versus D10 strain
Method: as §1, §2

[3] = test system: mouse fibrosarcoma cell line WEHI-164; assay: Cytotoxicity, MTT assay, WEHI-164; format: cell-based; conditions: read-out: WEHI-164 Mean ± S.D. IC50
[4] = test system: Plasmodium falciparum (Pf) W2; conditions: Pf W2 in vitro; cited from earlier work
[5] = test system: Plasmodium falciparum (Pf) D6; conditions: Pf D6 in vitro; cited from earlier work
[6] = test system: myelogenous leukemia cell line K562; assay: Cytotoxicity, MTT assay, K562; format: cell-based, human; conditions: for IC50: Homo sapiens, K562, MTT assay conducted for 72 h, read-out: Mean (±S.D.) IC50 K562
Method: (§3) Selected compounds were carried forward for screening against the immortalized myelogenous leukemia, K562, human microvascular endothelial cells (HMEC-1) and fresh human fibroblasts HDF (Table 2) using the MTT assay, as above.
(§4) A long term microvascular endothelial cell line (HMEC-1) immortalized by SV 40 large T antigen was kindly provided by Dr. Francisco J. Candal, Center for Disease Control, Atlanta, GA, USA. […] Fibroblasts from skin biopsies were maintained in DMEM (EuroClone, Pero, Italy) supplemented with 10% fetal calf serum (HyClone, Logan, UT, USA), 2 mM glutamine, 100 U/mL of penicillin and 100 µg/mL of streptomycin.
(§5) Cells were then treated with serial dilutions of test compounds and cell proliferation evaluated using the MTT assay as previously described. […] All the tests were performed in triplicate at least three times.
as §2

[7] = test system: human microvascular endothelial cells (HMEC-1); assay: Cytotoxicity, MTT assay, HMEC-1; format: cell-based; conditions: MTT assay conducted for 72 h, read-out: Mean (±S.D.) IC50 HMEC
Method: as §3, §4, §5, §2

[8] = test system: fresh human dermal fibroblasts HDF; assay: Cytotoxicity, MTT assay, HDF; format: cell-based; conditions: Fibroblast, MTT assay conducted for 72 h, read-out: Mean (±S.D.) IC50 HDF
Method: as §3, §4, §5, §2

[9] = test system: different strains of Plasmodium falciparum (Pf); assay: In vitro antimalarial assay (pLDH), summary over different Pf strains; format: cell-based; conditions: for IC50: Plasmodium falciparum, range over D10 and W-2 strains, read-out: IC50 against different strains of Plasmodium falciparum
Method: as §1, §2

Pf = conditions: fold more active; cited from earlier work
[10] = cited from earlier work
[11] = fold more active; cited from earlier work
[12] = parameters: method as in earlier work; conditions: 28 (artemisone), 29 (DHA); cited from earlier work
[13] = Plasmodium falciparum, CQ-resistant strain, pLDH readout
[14] = Plasmodium falciparum, D10, 72 h, CQ-sensitive strain, 72 h, pLDH readout
[15] = Mus musculus, WEHI-164, 72 h, MTT, 72 h
[16] = CQ-resistant strain, pLDH readout
[17] = CQ-sensitive strain, 72 h, pLDH readout

SMILES	IC50 [1, 13] [nM]	Ratio IC50 cpd/IC50 DHA [1]	SI IC50WEHI-164/IC50 cpd [1]	Ratio IC50 cpd/IC50 DHA [2]	IC50 [2, 14] [nM]	SI IC50WEHI-164/IC50 cpd [2]	IC50 [3, 15] [nM]	IC50 [6] [nM]	IC50 [8] [nM]	IC50 [1, 16] [nM]	IC50 [2, 17] [nM]	also measured
CC1CCC2C(C)C(N3CCNCC3)OC3OC4(C)CCC1C32OO4 (stereo not drawn) [Compound 10, 10α-(1-Piperazino)-10-deoxo-10-dihydroartemisinin]	1.1 ± 0.4	0.73	136	0.41	1.4 ± 0.5	107	150 ± 10					
CC1CCC2C(C)C(OC3OC(CO)C(O)C(O)C3O)OC3OC4(C)CCC1C32OO4 (stereo not drawn) [Compound 11]												IC50 [4]: 76.3 nM; IC50 [5]: 272 nM
CC1CCC2C(C)C(N3CCN(C4OC(CO)C(O)C(O)C4O)CC3)OC3OC4(C)CCC1C32OO4 (stereo not drawn) [Compound 18]		0.8	233	0.38		215		810 ± 240	382000 ± 31200	1.2 ± 0.3	1.3 ± 0.1	IC50 [7]: 4410 ± 2290 nM; IC50 ([3]; MTT, 72 h): 280 ± 80 nM
CC[C@@]1(O)C(=O)OCc2c1cc1n(c2=O)Cc2cc3ccccc3nc2-1 [Camptothecin, camptothecin, reference compound]								30 ± 10	2620 ± 840			SI with respect to the human dermal fibroblasts (HDF) ([6]; HDF versus K562): < 100
C[C@@H]1CC[C@H]2[C@@H](C)C(=O)O[C@@H]3O[C@@]4(C)CC[C@@H]1[C@]32OO4 [artemisinin 1, artemisinin]												IC50 [4]: 2.4 nM; IC50 [5]: 10.4 nM
CC1CCC2C(C)C(N3CCN(C4OC(C)C(O)C(O)C4O)CC3)OC3OC4(C)CCC1C32OO4 (stereo not drawn) [Compound 23]	< 1	0.49	878	0.22	< 1	878	650 ± 60	1950 ± 480	314000 ± 85600	0.74 ± 0.3	0.74 ± 0.34	IC50 [9]: 0.58 to 0.87 nM; selectivity index (SI) with respect to WEHI-164 ([9]; WEHI-164 IC50 / antimalarial IC50, over the strains): > 195
CCN(CC)CCCC(C)Nc1ccnc2cc(Cl)ccc12 (stereo not drawn) [Chloroquine, chloroquine, reference compound]												IC50 ([1]; Plasmodium falciparum): 264 ± 143 nM; IC50 ([2]; Plasmodium falciparum, D10, 72 h): 23.4 ± 10.1 nM; IC50 ([3]; Mus musculus, WEHI-164, 72 h): > 10000 nM
C[C@H]1[C@H](N2CCS(=O)(=O)CC2)O[C@@H]2O[C@@]3(C)CC[C@H]4[C@H](C)CC[C@@H]1[C@@]24OO3 [Artemisone 7, artemisone, reference compound]	0.9 ± 0.4	0.6	328	0.32	1.1 ± 0.4	269	296 ± 59	260 ± 40	88300 ± 33800			activity relative to artesunate 4 against Pf in vitro (Pf): nine-fold; neurotoxicity in vitro and in vivo [10]: negligible neurotoxicity; IC50 [9]: 0.9 to 1.1 nM; activity relative to artesunate 4 in vivo [11]: at least three-fold; elimination half-life [12]: ~ 3 h; plasma clearance [12]: ~ 3.5 L/h/kg; volume of distribution [12]: 14.5 L/kg
CC1CCC2C(C)C(N3CCN(C4OC(CO)C(O)C(O)C4O)CC3)OC3OC4(C)CCC1C32OO4 (stereo not drawn) [Compound 20]		2.9	772	1.7		596				4.4 ± 2.3	5.7 ± 2.9	IC50 ([3]; MTT, 72 h): 3400 nM

From article PMC6100044 (Molecules : A Journal of Synthetic Chemistry and Natural …, 2018)
